# According to US12391685B2, “Inhibitors of RNA-guided nuclease target binding and uses thereof” (THE BROAD INSTITUTE, INC., priority 2018, dated 2025):
# Entries after “also recorded” stand apart in the source; their conditions may differ. Like-named read-outs stand apart in the source and are kept apart here.
# Key:
# [1] = target: T1, SpCas9:DNA interactions (Streptococcus pyogenes serotype M1, UniProt Q99ZW2); experiment: Differential scanning fluorimetry, disruption of SpCas9-DNA interaction; format: binding, S. pyogenes; settings: SpCas9 1 μM, 8PAM DNA 2 μM, BRD0539 5-20 μM
# T1 construct: made in house; host or cells: E. coli Rosetta (DE3)
# T1 sequence (Q99ZW2 whole entry): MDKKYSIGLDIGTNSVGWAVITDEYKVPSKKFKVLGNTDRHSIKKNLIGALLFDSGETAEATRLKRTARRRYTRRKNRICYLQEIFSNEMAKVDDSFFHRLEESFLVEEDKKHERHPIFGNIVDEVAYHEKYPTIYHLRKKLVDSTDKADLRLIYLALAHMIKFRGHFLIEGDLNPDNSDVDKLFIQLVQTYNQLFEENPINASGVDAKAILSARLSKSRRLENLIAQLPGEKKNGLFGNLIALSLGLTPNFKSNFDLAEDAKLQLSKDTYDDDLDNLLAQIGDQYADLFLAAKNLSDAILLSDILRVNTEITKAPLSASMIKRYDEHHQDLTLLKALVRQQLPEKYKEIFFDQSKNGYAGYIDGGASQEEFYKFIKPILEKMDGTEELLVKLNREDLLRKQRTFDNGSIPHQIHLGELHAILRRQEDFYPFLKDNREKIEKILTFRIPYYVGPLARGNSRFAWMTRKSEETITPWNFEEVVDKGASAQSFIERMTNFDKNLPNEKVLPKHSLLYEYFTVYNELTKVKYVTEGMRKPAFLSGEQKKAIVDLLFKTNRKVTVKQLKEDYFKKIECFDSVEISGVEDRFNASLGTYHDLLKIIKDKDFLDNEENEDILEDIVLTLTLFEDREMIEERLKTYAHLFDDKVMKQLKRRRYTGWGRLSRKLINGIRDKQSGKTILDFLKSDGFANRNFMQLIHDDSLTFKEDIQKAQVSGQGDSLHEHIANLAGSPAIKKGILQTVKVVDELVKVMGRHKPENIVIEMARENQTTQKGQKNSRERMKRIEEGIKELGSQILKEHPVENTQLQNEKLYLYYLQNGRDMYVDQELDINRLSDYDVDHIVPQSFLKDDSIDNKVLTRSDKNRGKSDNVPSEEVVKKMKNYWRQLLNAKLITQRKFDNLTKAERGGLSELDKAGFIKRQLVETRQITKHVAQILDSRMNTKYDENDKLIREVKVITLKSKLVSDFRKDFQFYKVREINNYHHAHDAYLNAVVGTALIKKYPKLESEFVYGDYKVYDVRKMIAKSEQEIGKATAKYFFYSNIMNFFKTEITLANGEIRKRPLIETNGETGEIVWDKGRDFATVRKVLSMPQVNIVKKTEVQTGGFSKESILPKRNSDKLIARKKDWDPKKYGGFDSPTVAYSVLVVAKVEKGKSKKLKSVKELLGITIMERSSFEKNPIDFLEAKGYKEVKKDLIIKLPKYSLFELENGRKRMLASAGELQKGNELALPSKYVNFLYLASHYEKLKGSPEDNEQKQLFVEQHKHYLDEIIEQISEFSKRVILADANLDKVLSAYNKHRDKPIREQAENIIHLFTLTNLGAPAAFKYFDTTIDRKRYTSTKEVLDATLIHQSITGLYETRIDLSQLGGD
# Method: Disruption of SpCas9-DNA interaction by BRD0539. Protein melting experiments were performed in a 384-well format using a 6 μL reaction volume in a LightCycler 480 instrument. For DNA binding assay, 1 μM SpCas9 (1 μM) was incubated with indicated amount of 8PAM DNA (0.25, 0.5, 1, and 2 μM) for 15 min in a 20 mM Tris-HCl buffer (150 mM KCl, 5 mM MgCl2, 1 mM DTT, pH 7.5). For inhibition assay, SpCas9 (1 μM) or SpCas9:gRNA (1 μM) was incubated with indicated amount of either BRD0539 or equivalent amount of DMSO for 15 min in a 20 mM Tris-HCl buffer (150 mM KCl, 5 mM MgCl2, 1 mM DTT, pH 7.5). Next, a 8PAM DNA (2 μM) was added to each of the reaction and incubated for additional 15 min followed by addition of 1 μL of 100×SYPRO® Orange (Invitrogen) before running the melting cycle with a temperature gradient of 4.8° C./min. Experiments were performed in duplicate and data were processed using Roche LightCycler® 480 Protein Melting software.
# [2] = target: SpCas9 (Streptococcus pyogenes serotype M1, UniProt Q99ZW2); experiment: eGFP-disruption assay in U2OS.eGFP.PEST cells; format: cell-based, S. pyogenes; design: host or cells: U2OS.eGFP.PEST; settings: for inhibition of SpCas9 in the eGFP-disruption assay (in words) / inhibition at 15 µM: U2OS.eGFP.PEST cells; for inhibition at 15 µM: screen of structural analogs of BRD7087, 15 μM compound
# Sequence of SpCas9 (Q99ZW2 whole entry): as above
# Summary of the method: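 U2OS.eGFP-PEST cells were nucleofected with SpCas9 plus eGFP Site #1 sgRNA, as plasmids or as preformed RNP (20 pmol). Compound or DMSO was present for 24 h post-transfection. Fixed cells were imaged with a nuclear counterstain, and the % GFP-negative cell population was quantified by automated microscopy.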
# [3] = target: T2, SpCas9:gRNA complex (Streptococcus pyogenes serotype M1, UniProt Q99ZW2); experiment: 19F NMR binding assay; design: species or system S. pyogenes; settings: for receptor occupancy at 50 µM: read-out: Fractional Occupancy
# T2 construct: made in house; host or cells: E. coli Rosetta (DE3)
# T2 sequence (Q99ZW2 whole entry, one chain of several): as the sequence (Q99ZW2 whole entry) above
# Method: Table 8 NMR parameters used for analysis of BRD7087 binding to SpCas9:gRNA complex. The binding study of BRD7087 to SpCas9:gRNA complex was analyzed based on the method described by Shortridge et. al. The linewidth (LW) increases with increasing SpCas9:gRNA concentration, as expected. Peak intensity values were used to measure the fractional occupancy using the equation Fractional Occupancy=(1−Ibound/I0), where I0 is the intensity of the peak with no protein in the sample. The peak area remains relatively constant, as expected for a fixed concentration of ligand.
# NMR binding assay. All samples were prepared with 50 μM BRD7087 in 20 mM Tris buffer (pH 7.4) with varying concentrations of SpCas9:gRNA in a 3 mm NMR tube. Experiments were performed on a 600 MHZ (^19F: 564.71 MHZ) Bruker Avance III NMR spectrometer equipped with a 5 mm QCI-F CryoProbe and a SampleJet for automated sample handling. To acquire spectra, a standard one-pulse ^19F experiment with WALTZ-16 for proton decoupling during acquisition, a 5 second recycle delay, and 256 scans were used. All spectra were recorded at 280 K. NMR data were apodized with a 1 Hz exponential function prior to Fourier transformation. All spectra were baseline corrected, and peak widths and intensities were extracted using the automated line-fitting feature provided with the MNova software package.
# [4] = physchem; settings: PBS, aqueous buffer
# [5] = 50 μM BRD7087, 0.75 μM SpCas9:gRNA
# [6] = 50 μM BRD7087, 1.0 μM SpCas9:gRNA
# [7] = 50 μM BRD7087, 1.25 μM SpCas9:gRNA
# [8] = 50 μM BRD7087, 1.5 μM SpCas9:gRNA
# [9] = 50 μM BRD7087, 1.75 μM SpCas9:gRNA
smiles,measurement,setting,value
"Cc1ccc(S(=O)(=O)N2CC[C@@H]3[C@H](CO)Nc4ccc(-c5ccccc5F)cc4[C@@H]32)cc1 [BRD0539, ((3aR,4R,9bR)-8-(2-fluorophenyl)-1-tosyl-2,3,3a,4,5,9b-hexahydro-1H-pyrrolo[3,2-c]quinolin-4-yl) methanol]",effect on formation of the DNA-bound state of SpCas9 (in words),[1],dose-dependently blocked the formation of the DNA bound state; also recorded: dose-dependently blocked the formation of the DNA-bound state
same,EC50,"[2]; EC50, dose-dependent inhibition of SpCas9, U2OS.eGFP.PEST cells, 24 h, tested from 2.8-17.3 μM",11.5 µM
same,inhibition of SpCas9 in the eGFP-disruption assay (in words),[2],dose-dependent inhibitory activity; also recorded: able to inhibit
same,improvement in potency over BRD7087,[2]; eGFP-disruption assay,1.8 fold
same,EC50,"[2]; eGFP-disruption assay, read-out: apparent EC50",11 µM
same,inhibition at 15 µM,"[2]; 24 h, read-out: Average Inhibition activity",64.2%
same,inhibition at 15 µM,"[2]; 24 h, read-out: Inhibition activity Rep 1",61%
same,inhibition at 15 µM,"[2]; 24 h, read-out: Inhibition activity Rep 2",67.4%
same,potency among the four stereoisomers,"[2]; tested from 2.5-15 μM, 24 h",most potent
"OC[C@H]1Nc2ccc(-c3cccc(F)c3)cc2[C@H]2[C@@H]1CCN2Cc1ccncc1 [BRD7087, ((3aR,4S,9bR)-8-(3-Fluorophenyl)-1-(pyridin-4-ylmethyl)-2,3,3a,4,5,9b-hexahydro-1H-pyrrolo[3,2-c]quinolin-4-yl) methanol]",LW (linewidth of 19F signal),[3]; [5],4.3 Hz
same,receptor occupancy at 50 µM,[3]; [5],13.1%
same,LW (linewidth of 19F signal),[3]; [6],4.6 Hz
same,receptor occupancy at 50 µM,[3]; [6],18.2%
same,LW (linewidth of 19F signal),[3]; [7],5.3 Hz
same,receptor occupancy at 50 µM,[3]; [7],30.4%
same,LW (linewidth of 19F signal),[3]; [8],5.9 Hz
same,receptor occupancy at 50 µM,[3]; [8],34.4%
same,LW (linewidth of 19F signal),[3]; [9],6.3 Hz
same,receptor occupancy at 50 µM,[3]; [9],40.1%
same,binding to SpCas9:gRNA by 19F line broadening (in words),[3]; significant broadening at protein concentrations as low as 0.75 μM,tight binding
same,solubility at 24 h,[4],75 µM
same,inhibition of SpCas9 in the eGFP-disruption assay (in words),[2],dose-dependent inhibition
same,inhibition at 10 µM,[2]; read-out: inhibition of SpCas9,~44%
